According to PubChem BioAssay AID256 (DTP/NCI, 2004):
Values joined by “and” are separate entries in the source; they are usually repeats but may differ in a detail not shown here. Equal entries are not always repeated. Inconclusive results and toxic doses are left out. How the source made its calls: active means survival T/C of 150% or more; inactive means T/C below 125% in these data.

System: CD2F1 mice, L1210 leukemia ip, survival T/C
Assay: NCI In Vivo Anticancer Drug Screen. Data for tumor model L1210 Leukemia (intraperitoneal) in CD2F1 (CDF1) mice
Details: higher = longer survival
How it was run: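 Antitumor effect is scored in animals hosting a serially transplanted tumor. Values compare compound-dosed animals against vehicle-only controls as a simple quotient.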

[1] = endpoint: mean survival time, dose: 100.0 mg/kg/injection, schedule: Q04DX003 (ip), vehicle: saline with Tween-80
[2] = endpoint: mean survival time, dose: 200.0 mg/kg/injection, schedule: Q04DX003 (ip), vehicle: saline with Tween-80
[3] = endpoint: mean survival time, dose: 400.0 mg/kg/injection, schedule: Q04DX003 (ip), vehicle: saline with Tween-80
[4] = endpoint: mean survival time, dose: 100.0 mg/kg/injection, schedule: Q01DX009 (ip), vehicle: saline with Tween-80
[5] = endpoint: mean survival time, dose: 200.0 mg/kg/injection, schedule: Q01DX009 (ip), vehicle: saline with Tween-80
[6] = endpoint: mean survival time, dose: 100.0 mg/kg/injection, schedule: Q01DX001 (ip), vehicle: saline with Tween-80
[7] = endpoint: mean survival time, dose: 200.0 mg/kg/injection, schedule: Q01DX001 (ip), vehicle: saline with Tween-80
[8] = endpoint: mean survival time, dose: 400.0 mg/kg/injection, schedule: Q01DX001 (ip), vehicle: saline with Tween-80
[9] = endpoint: mean survival time, dose: 200.0 mg/kg/injection, schedule: Q01DX009 (ip), vehicle: saline
[10] = endpoint: mean survival time, dose: 100.0 mg/kg/injection, schedule: Q04DX002 (ip), vehicle: saline with Tween-80
[11] = endpoint: mean survival time, dose: 200.0 mg/kg/injection, schedule: Q04DX002 (ip), vehicle: saline with Tween-80
[12] = endpoint: mean survival time, dose: 400.0 mg/kg/injection, schedule: Q04DX002 (ip), vehicle: saline with Tween-80
[13] = endpoint: mean survival time, dose: 6.25 mg/kg/injection, schedule: Q04DX003 (ip), vehicle: saline with Tween-80
[14] = endpoint: mean survival time, dose: 12.5 mg/kg/injection, schedule: Q04DX003 (ip), vehicle: saline with Tween-80
[15] = endpoint: mean survival time, dose: 25.0 mg/kg/injection, schedule: Q04DX003 (ip), vehicle: saline with Tween-80

Measured: T/C

CCOC(=O)Cc1c(C)[nH]c2c(Br)cc(C)c(C)c12
inactive: endpoint: mean survival time, dose: 100.0 mg/kg/injection, schedule: Q01DX001 (ip), vehicle: other 98 % of control | endpoint: mean survival time, dose: 200.0 mg/kg/injection, schedule: Q01DX001 (ip), vehicle: other 89 % of control | endpoint: mean survival time, dose: 400.0 mg/kg/injection, schedule: Q01DX001 (ip), vehicle: other 110 % of control

O=C(O)C1C(C(=O)O)C2C3C4C1C1C2C3C41 (stereo not given)
inactive: [1] 108 % of control | [2] 104 % of control | [3] 98 % of control

COC(=O)CC1(C)C(=O)CCC2(C)C1=CCc1ccc(OC)cc12 (stereo not given)
inactive: endpoint: mean survival time, dose: 100.0 mg/kg/injection, schedule: Q01DX001 (sc), vehicle: steriod suspending solution 102 % of control | endpoint: mean survival time, dose: 200.0 mg/kg/injection, schedule: Q01DX001 (sc), vehicle: steriod suspending solution 96 % of control | endpoint: mean survival time, dose: 400.0 mg/kg/injection, schedule: Q01DX001 (sc), vehicle: steriod suspending solution 101 % of control

COc1ccccc1OCCN1Cc2ccccc2C1
inactive: endpoint: mean survival time, dose: 50.0 mg/kg/injection, schedule: Q01DX009 (ip), vehicle: saline with Tween-80 94 % of control | [4] 100 % of control | [5] 97 % of control

O=C(OC1=CCc2ccccc21)c1ccc([N+](=O)[O-])cc1
inactive: endpoint: mean survival time, dose: 50.0 mg/kg/injection, schedule: Q01DX001 (ip), vehicle: saline with Tween-80 101 % of control | [6] 96 % of control and 97 % of control | [7] 121 % of control and 96 % of control | [8] 95 % of control and 97 % of control

O=S1C2C3CC(C4C=CCC43)C2N1c1ccccc1 (stereo not given)
inactive: [6] 92 % of control | [4] 97 % of control | [7] 95 % of control | [5] 97 % of control | [8] 90 % of control | endpoint: mean survival time, dose: 400.0 mg/kg/injection, schedule: Q01DX009 (ip), vehicle: saline with Tween-80 94 % of control

ClCCN(CCCl)c1ccc(N=Nc2ccc(Cl)cc2)cc1
inactive: endpoint: mean survival time, dose: 100.0 mg/kg/injection, schedule: Q01DX001 (ip), vehicle: Klucel (hydroxypropylcellulose) (HPC) 94 % of control | endpoint: mean survival time, dose: 200.0 mg/kg/injection, schedule: Q01DX001 (ip), vehicle: Klucel (hydroxypropylcellulose) (HPC) 94 % of control | endpoint: mean survival time, dose: 400.0 mg/kg/injection, schedule: Q01DX001 (ip), vehicle: Klucel (hydroxypropylcellulose) (HPC) 97 % of control

Nc1cc(OCc2ccccc2)c(N)c(N)n1
inactive: endpoint: mean survival time, dose: 1.56 mg/kg/injection, schedule: Q01DX005 (ip), vehicle: water 98 % of control | endpoint: mean survival time, dose: 3.13 mg/kg/injection, schedule: Q01DX005 (ip), vehicle: water 97 % of control | endpoint: mean survival time, dose: 6.25 mg/kg/injection, schedule: Q01DX005 (ip), vehicle: water 98 % of control | endpoint: mean survival time, dose: 12.5 mg/kg/injection, schedule: Q01DX005 (ip), vehicle: water 98 % of control | endpoint: mean survival time, dose: 25.0 mg/kg/injection, schedule: Q01DX005 (ip), vehicle: water 97 % of control

Brc1cn[nH]c1Br
inactive: [1] 98 % of control | [2] 104 % of control | [3] 88 % of control

Nc1cc(S(=O)(=O)O)cc2ccc(S(=O)(=O)O)cc12
inactive: endpoint: mean survival time, dose: 100.0 mg/kg/injection, schedule: Q01DX009 (ip), vehicle: saline 106 % of control | endpoint: mean survival time, dose: 100.0 mg/kg/injection, schedule: Q04DX003 (ip), vehicle: saline 96 % of control | [9] 95 % of control | endpoint: mean survival time, dose: 200.0 mg/kg/injection, schedule: Q04DX003 (ip), vehicle: saline 92 % of control | endpoint: mean survival time, dose: 400.0 mg/kg/injection, schedule: Q01DX009 (ip), vehicle: saline 92 % of control | endpoint: mean survival time, dose: 400.0 mg/kg/injection, schedule: Q04DX003 (ip), vehicle: saline 117 % of control

CCOC(=O)C(=O)O
inactive: [9] 104 % of control

CC(=O)OCC(C(=O)OC1CC2C3OC3C(C1)N2C)c1ccccc1 (stereo not given)
inactive: endpoint: median survival time, dose: 12.5 mg/kg/injection, schedule: Q04DX003 (ip), vehicle: saline 100 % of control | endpoint: median survival time, dose: 25.0 mg/kg/injection, schedule: Q04DX003 (ip), vehicle: saline 100 % of control | endpoint: median survival time, dose: 50.0 mg/kg/injection, schedule: Q04DX003 (ip), vehicle: saline 88 % of control | endpoint: median survival time, dose: 100.0 mg/kg/injection, schedule: Q04DX003 (ip), vehicle: saline 88 % of control

CCOC(=O)/C=C(C)/C=C/C1C(C)=CCCC1(C)C (stereo not given)
inactive: [10] 103 % of control | [11] 92 % of control | [12] 100 % of control

NC(=O)c1c(N)sc2c1CCCC2
inactive: endpoint: mean survival time, dose: 6.25 mg/kg/injection, schedule: Q01DX009 (ip), vehicle: saline with Tween-80 96 % of control | [13] 107 % of control | endpoint: mean survival time, dose: 12.5 mg/kg/injection, schedule: Q01DX009 (ip), vehicle: saline with Tween-80 93 % of control | [14] 102 % of control | endpoint: mean survival time, dose: 25.0 mg/kg/injection, schedule: Q01DX009 (ip), vehicle: saline with Tween-80 95 % of control | [15] 100 % of control

COc1ccc(C(=O)CN(C)S(=O)(=O)c2ccc(C)cc2)cc1
inactive: [10] 97 % of control | [11] 97 % of control | [12] 94 % of control

CCc1ccc(NN=Nc2ccccc2C#N)cc1
inactive: [1] 95 % of control | [2] 95 % of control | [3] 98 % of control

COc1ccn(C2OCCC(N=[N+]=[N-])C2O)c(=O)n1 (stereo not given)
inactive: endpoint: median survival time, dose: 12.5 mg/kg/injection, schedule: Q01DX005 (ip), vehicle: alkali diluted with saline 109 % of control | endpoint: median survival time, dose: 25.0 mg/kg/injection, schedule: Q01DX005 (ip), vehicle: alkali diluted with saline 102 % of control | endpoint: median survival time, dose: 50.0 mg/kg/injection, schedule: Q01DX005 (ip), vehicle: alkali diluted with saline 108 % of control | endpoint: median survival time, dose: 100.0 mg/kg/injection, schedule: Q01DX005 (ip), vehicle: alkali diluted with saline 109 % of control | endpoint: median survival time, dose: 200.0 mg/kg/injection, schedule: Q01DX005 (ip), vehicle: alkali diluted with saline 98 % of control

Cc1cc(O)c2c(c1O)C(=O)C13C(=C2O)C(=O)C2C(O)C1C1C(O)C3C(=O)C3=C(O)c4c(O)cc(C)c(O)c4C(=O)C321 (stereo not given)
inactive: [13] 102 % of control | [14] 107 % of control | [15] 93 % of control | endpoint: median survival time, dose: 0.78 mg/kg/injection, schedule: Q01DX009 (ip), vehicle: saline with Tween-80 111 % of control | endpoint: median survival time, dose: 1.56 mg/kg/injection, schedule: Q01DX009 (ip), vehicle: saline with Tween-80 109 % of control | endpoint: median survival time, dose: 3.12 mg/kg/injection, schedule: Q01DX009 (ip), vehicle: saline with Tween-80 97 % of control and 102 % of control

O=C(c1ccccc1)c1ccsc1C(=O)O
inactive: endpoint: mean survival time, dose: 25.0 mg/kg/injection, schedule: Q04DX002 (ip), vehicle: saline with Tween-80 96 % of control | endpoint: mean survival time, dose: 50.0 mg/kg/injection, schedule: Q04DX002 (ip), vehicle: saline with Tween-80 96 % of control

O=C(Cc1ccccc1)c1ccc(Cl)cc1
inactive: [6] 101 % of control | [7] 88 % of control | [8] 93 % of control

Cc1ccccc1-n1c(O)c(N=Nc2ccccc2)c(=O)n(-c2ccccc2)c1=S
inactive: endpoint: mean survival time, dose: 50.0 mg/kg/injection, schedule: Q04DX003 (ip), vehicle: Klucel (hydroxypropylcellulose) (HPC) 93 % of control | endpoint: mean survival time, dose: 100.0 mg/kg/injection, schedule: Q04DX003 (ip), vehicle: Klucel (hydroxypropylcellulose) (HPC) 94 % of control | endpoint: mean survival time, dose: 200.0 mg/kg/injection, schedule: Q04DX003 (ip), vehicle: Klucel (hydroxypropylcellulose) (HPC) 104 % of control

Cc1ccnc(N)c1N
inactive: endpoint: mean survival time, dose: 12.5 mg/kg/injection, schedule: Q01DX009 (ip), vehicle: other 91 % of control | endpoint: mean survival time, dose: 25.0 mg/kg/injection, schedule: Q01DX009 (ip), vehicle: other 94 % of control
